Assay results published in patent publication US7511076B2, “Nitrosation-inducible inhibitors biological macromolecules” (New York University, priority 2000, dated 2009).

Tests used:
[1] = test system: prostatic carcinoma cell lines DU-145 and PC-3 and normal human fibroblasts (WI-38); test: MTS cytotoxicity assay (CellTiter 96); conditions: for Effect of the additive on ANSA cytotoxicity: NO trap or general NOS inhibitor added; for Cytotoxic effect / cell survival (MTS, in words): 0.1-100 μM, 72 h, presence or absence of *NO
Experimental: A second preliminary study used two human hormone-independent prostatic carcinoma cell lines DU-145 and PC-3 (ATCC, Virginia) and normal human fibroblasts (WI-38). The MTS cytotoxicity assay (“CellTiter 96”, Promega) was used to measure the cytotoxicity of several ANSA compounds in the presence or absence of *NO. All compounds tested in vitro were dissolved in DMSO ([…]) and subsequently diluted in the culture medium before treatment of the cultured cells. Tested cells were plated in 96-well plates at a density of 4×10^3 cells/well/200 μL of the proper culture medium and treated with the compounds at concentrations of 0.1-100 μM. In parallel, the cells were treated with 1% of DMSO as control. MTS assay was performed 72 h later according to instructions provided by the manufacturer (Promega). This assay is based on the cellular conversion of the tetrazolium salt, MTS[3-(4,5-dimethylthiazol-2-yl)-5-(3-carboxymethoxyphenyl)-2-(4-sulfophenyl)-2H-tetrazolium, inner salt], into a formazan that is soluble in cell culture medium and is measured at 490 nm directly in 96-well assay plates without additional processing. Absorbency is directly proportional to the number of living cells in culture.
In order to be nitrosated, peptidyl-ANSA must undergo cleavage of the C-terminal amino acid residue to relieve the R3 NH2 group.

[2] = test system: Escherichia coil strain BL21 and Bacillus subtilis Strain IS75; test: Bactericidal effect on Gram-negative and Gram-positive bacteria; type: cell-based, Escherichia coli; Bacillus subtilis; conditions: for Effect of the additive on the bactericidal effect of ANSA (CFU): NO trap or water solution of NO added with ANSA
Experimental: (§1) ANSA Derivatives as a New Class of Antibiotics and Antineoplastic Drugs. ANSA derivatives (shown in FIG. 9) were tested for their cytotoxic capabilities using wild type strains of Gram-negative and Gram-positive bacterial (Escherichia coil strain BL21 and Bacillus subtilis Strain IS75).
In order to be nitrosated, peptidyl-ANSA must undergo cleavage of the C-terminal amino acid residue to relieve the R3 NH2 group. Taking advantage of the chromogenic nature of ANSA compounds, it was possible to determine whether the peptidyl-ANSA were transported in the cell and processed by proteolysis.

[3] = target: T1, RNA polymerase from E. coli (RNAP) (Escherichia coli, UniProt P0A7Z4+P0A8T7+P0A8V2); test: *NO-dependent RNAP inactivation assay (in vitro transcription); type: biochemical; conditions: for *NO-dependent inactivation of RNAP (transcription) in the presence of ANSA: RNAP + ANSA treated with low dose of *NO; for Effect on transcription by RNAP, agent alone: agent added alone (*NO low dose without ANSA; ANSA without *NO)
T1 construct: made in house
Experimental: Transcription reactions (total volume=20 μl) were performed in a buffer containing 20 mM Tris HCL, pH 7.5, 10 mM MgCl2, 50 mM KCl, 8 μM ATP, GTP, UTP, 1.8 μM CTP, and 0,15 μM [α-^32P] CTP (3000 Ci/mmol) for 5 minutes at 37° C. RNAP was purified as described (Nudler et al, 1996). The DNA template containing the A1 promoter of phage T7 was obtained by polymerase chain reaction from the plasmid pENtR2 (Nudler et al, 1996).
Hydrophobic Amines (ANSA) as *NO-Dependent Enzyme Inhibitors. To investigate whether this mechanism might be functioning in proteins other than BSA, the effect of nitrosation on a completely distinct protein—RNA polymerase from E. coli (RNAP)—was examined. The experiments were done by exposing RNAP to a low dose of *NO, and then adding the DNA template and ribonucleotide substrates to initiate the transcription reaction. For a control, a solution of NO2^− for the *NO was substituted by oxidizing *NO prior to the experiment. […] The *NO-dependent inhibition of RNAP was complex. […] Shorter transcripts represent paused RNAP molecules resulting from the limited amount of CTP in the reaction. […] The complex inhibitory effect of nitrosation on RNAP is not surprising since many potential nitrosation targets are distributed in structurally and functionally distinct regions of the enzyme (Zhang et al, 1999).
To determine whether this process could also occur with RNAP, the mixture of RNAP+ANSA II was treated with *NO (FIG. 3, lane 4).
To further test the autocatalytic mechanism of enzyme inactivation and the key role of nitrosation-azocoupling in this process additional ANSA was synthesized and were tested in the *NO-dependent RNAP inactivation assay (FIG. 3). […] ANSA VI and ANSA VII, with methyl and peptidyl substitutions in the NH2 group, were incapable of forming aryldiazonium cation upon nitrosation. […] This experiment raises the possibility that hydrophobic amines could be used as efficient tools for the *NO-dependent inactivation of enzymes.

[4] = test system: Escherichia coil strain BL21; test: Bactericidal effect of ANSA derivatives on E. coli cultures (CFU count); type: cell-based, Escherichia coli; conditions: 20 μg/ml ANSA, 30 minutes, room temperature, start 10^7 CFU ml^−1, *NO and/or PTIO 20 μM where indicated; for CFU, E. coli, rich media: LB broth; for CFU, E. coli, minimal media: M9 minimal media
Experimental: as §1

[5] = test system: Bacillus subtilis Strain IS75; test: Bactericidal effect of ANSA derivatives on B. subtilis cultures (CFU count); type: cell-based; conditions: 20 μg/ml ANSA, 30 minutes, room temperature, start 10^7 CFU ml^−1, *NO and/or PTIO 20 μM where indicated; for CFU, B. subtilis, rich media: LB broth; for CFU, B. subtilis, minimal media: Spizizen's minimal media
Experimental: as §1

BSA = target: T2, BSA (Bos taurus, UniProt P02769); test: Complex formation and nitrosation of ANSA in the presence of BSA (gel filtration, fluorescence, TLC); type: binding; conditions: for Nitrosation of ANSA in the ANSA I+ANSA II+BSA mixture: low dose of *NO (5 molar excess), aerobic
T2 construct: purchased Sigma
Experimental: ANSA were synthesized from 5-nitronaphthalenesulphoacids and 5-aminonaphthalenesulphoacids (Reahim). TLC of ANSA and their derivatives was carried out on Silica gel 60 plates (Merck) in the hexane/ethyl acetate system. Gel filtration was performed using the Sephadex G25M size-exclusion column (Pharmacia). Fluorescence of ANSA was observed and measured under 365 nm UV light using BioRad Fluor-S MultiImager system.
The present inventors first synthesized two ANSA with opposite hydrophobic properties (FIG. 12B). In the low-hydrophobic ANSA molecule (ANSA I), the R1 group is —CH3 and the R2 group is —H. The highly hydrophobic ANSA (ANSA II) has C3H7 for both R1 and RExperiments were done by mixing an aqueous solution of ANSA with the test protein, and then initiating the nitrosation reaction by the aerobic addition of an aqueous solution of *NO. Two initial concentrations of *NO were used at 25 molar excess over ANSA (high dose) and a 5 molar excess (low dose).

T1 sequence (P0A8V2 whole entry): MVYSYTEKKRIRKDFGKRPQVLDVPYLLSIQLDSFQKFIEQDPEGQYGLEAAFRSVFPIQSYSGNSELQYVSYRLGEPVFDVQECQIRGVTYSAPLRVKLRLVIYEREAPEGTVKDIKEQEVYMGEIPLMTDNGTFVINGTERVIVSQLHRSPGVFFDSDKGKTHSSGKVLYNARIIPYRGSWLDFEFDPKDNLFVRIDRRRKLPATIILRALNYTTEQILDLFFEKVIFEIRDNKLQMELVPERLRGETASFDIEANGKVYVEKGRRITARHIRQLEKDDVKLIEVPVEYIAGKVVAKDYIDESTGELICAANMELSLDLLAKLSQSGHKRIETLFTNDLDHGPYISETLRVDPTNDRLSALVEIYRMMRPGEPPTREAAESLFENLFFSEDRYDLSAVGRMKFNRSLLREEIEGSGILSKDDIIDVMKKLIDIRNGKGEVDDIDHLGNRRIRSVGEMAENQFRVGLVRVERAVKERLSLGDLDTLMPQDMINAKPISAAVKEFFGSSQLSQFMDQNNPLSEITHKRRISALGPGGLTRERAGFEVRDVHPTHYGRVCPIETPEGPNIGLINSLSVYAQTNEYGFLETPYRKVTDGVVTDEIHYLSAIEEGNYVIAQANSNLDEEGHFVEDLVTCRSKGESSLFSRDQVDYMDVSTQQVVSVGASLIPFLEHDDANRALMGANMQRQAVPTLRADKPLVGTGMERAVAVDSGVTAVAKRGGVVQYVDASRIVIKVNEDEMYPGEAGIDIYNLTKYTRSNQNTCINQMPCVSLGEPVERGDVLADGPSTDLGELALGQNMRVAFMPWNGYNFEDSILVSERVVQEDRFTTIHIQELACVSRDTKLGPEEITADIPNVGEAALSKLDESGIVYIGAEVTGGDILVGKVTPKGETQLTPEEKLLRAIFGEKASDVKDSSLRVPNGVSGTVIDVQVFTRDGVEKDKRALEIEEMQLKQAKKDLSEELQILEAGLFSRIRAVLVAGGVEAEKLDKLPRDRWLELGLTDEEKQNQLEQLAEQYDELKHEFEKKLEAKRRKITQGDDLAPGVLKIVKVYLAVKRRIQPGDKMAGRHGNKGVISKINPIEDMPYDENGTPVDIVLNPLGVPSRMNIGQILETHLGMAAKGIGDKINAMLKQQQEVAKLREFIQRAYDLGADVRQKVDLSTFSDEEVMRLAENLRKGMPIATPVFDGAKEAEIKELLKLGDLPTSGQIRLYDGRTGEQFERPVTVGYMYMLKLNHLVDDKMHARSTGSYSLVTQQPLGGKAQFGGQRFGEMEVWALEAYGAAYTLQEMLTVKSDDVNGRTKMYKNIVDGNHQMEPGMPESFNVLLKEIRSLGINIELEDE
T1 sequence (P0A8T7 whole entry): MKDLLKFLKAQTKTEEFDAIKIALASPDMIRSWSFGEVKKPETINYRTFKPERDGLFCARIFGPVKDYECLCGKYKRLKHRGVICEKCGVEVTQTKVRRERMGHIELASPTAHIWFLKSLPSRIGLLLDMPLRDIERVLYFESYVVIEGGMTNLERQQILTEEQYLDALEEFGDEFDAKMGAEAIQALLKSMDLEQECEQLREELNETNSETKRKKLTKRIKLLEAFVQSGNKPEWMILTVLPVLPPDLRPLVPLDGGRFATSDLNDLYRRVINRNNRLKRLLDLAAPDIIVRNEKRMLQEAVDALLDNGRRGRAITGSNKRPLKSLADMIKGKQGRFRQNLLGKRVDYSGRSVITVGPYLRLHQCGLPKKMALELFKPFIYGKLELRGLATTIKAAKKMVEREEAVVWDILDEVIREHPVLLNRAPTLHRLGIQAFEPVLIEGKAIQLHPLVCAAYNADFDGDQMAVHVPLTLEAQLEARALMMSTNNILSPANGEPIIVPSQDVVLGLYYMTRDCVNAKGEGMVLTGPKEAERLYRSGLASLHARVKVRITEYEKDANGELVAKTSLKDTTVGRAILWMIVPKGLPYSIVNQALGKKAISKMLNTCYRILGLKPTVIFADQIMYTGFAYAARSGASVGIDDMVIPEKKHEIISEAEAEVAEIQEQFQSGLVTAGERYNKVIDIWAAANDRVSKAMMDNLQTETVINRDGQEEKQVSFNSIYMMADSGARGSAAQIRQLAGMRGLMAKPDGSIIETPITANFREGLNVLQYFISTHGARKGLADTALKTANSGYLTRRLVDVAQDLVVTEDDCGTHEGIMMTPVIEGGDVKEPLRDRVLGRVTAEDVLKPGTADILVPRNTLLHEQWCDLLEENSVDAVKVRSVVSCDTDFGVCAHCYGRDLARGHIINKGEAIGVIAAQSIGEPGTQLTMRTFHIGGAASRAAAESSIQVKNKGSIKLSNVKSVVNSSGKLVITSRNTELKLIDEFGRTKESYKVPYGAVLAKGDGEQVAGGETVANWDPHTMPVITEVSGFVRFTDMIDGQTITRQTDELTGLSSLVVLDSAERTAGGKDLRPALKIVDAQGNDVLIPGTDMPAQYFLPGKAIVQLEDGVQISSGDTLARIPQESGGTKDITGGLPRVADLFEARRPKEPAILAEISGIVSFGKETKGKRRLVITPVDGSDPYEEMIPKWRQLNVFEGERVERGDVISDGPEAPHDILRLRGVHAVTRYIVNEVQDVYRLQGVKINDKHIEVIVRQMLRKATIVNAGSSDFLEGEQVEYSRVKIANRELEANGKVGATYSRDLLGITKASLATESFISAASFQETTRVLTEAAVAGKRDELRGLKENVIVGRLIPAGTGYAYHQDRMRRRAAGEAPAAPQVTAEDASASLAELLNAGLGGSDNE
T1 sequence (P0A7Z4 whole entry): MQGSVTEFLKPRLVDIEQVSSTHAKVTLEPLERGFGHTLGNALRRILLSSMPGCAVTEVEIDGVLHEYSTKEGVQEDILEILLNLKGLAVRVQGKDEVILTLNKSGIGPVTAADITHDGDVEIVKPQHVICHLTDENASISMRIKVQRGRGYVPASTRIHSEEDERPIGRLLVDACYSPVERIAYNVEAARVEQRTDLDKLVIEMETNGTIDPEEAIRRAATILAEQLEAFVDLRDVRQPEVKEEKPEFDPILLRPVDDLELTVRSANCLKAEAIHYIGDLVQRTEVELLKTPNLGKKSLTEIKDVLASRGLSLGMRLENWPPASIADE
T1 sequence (P0A800 2-91 partner limits assumed): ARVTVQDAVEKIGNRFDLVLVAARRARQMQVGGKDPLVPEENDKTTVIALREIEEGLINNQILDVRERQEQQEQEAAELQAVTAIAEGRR
T1 sequence (P00579 whole entry partner): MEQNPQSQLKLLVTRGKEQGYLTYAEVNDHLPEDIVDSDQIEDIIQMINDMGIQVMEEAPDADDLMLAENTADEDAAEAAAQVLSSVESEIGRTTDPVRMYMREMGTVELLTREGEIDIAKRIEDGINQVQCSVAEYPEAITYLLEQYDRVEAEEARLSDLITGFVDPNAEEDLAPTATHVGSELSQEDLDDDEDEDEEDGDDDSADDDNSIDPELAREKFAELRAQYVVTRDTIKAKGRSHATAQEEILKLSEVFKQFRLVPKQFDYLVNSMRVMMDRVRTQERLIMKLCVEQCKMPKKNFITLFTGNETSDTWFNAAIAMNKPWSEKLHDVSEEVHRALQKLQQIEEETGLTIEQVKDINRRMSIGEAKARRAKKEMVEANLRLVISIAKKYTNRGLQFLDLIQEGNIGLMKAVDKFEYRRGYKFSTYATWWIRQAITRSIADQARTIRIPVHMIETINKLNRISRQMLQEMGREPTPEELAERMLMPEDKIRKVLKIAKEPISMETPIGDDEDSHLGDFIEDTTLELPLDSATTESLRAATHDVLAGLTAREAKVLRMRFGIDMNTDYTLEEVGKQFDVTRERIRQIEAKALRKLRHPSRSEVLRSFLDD
T2 sequence (P02769 25-607): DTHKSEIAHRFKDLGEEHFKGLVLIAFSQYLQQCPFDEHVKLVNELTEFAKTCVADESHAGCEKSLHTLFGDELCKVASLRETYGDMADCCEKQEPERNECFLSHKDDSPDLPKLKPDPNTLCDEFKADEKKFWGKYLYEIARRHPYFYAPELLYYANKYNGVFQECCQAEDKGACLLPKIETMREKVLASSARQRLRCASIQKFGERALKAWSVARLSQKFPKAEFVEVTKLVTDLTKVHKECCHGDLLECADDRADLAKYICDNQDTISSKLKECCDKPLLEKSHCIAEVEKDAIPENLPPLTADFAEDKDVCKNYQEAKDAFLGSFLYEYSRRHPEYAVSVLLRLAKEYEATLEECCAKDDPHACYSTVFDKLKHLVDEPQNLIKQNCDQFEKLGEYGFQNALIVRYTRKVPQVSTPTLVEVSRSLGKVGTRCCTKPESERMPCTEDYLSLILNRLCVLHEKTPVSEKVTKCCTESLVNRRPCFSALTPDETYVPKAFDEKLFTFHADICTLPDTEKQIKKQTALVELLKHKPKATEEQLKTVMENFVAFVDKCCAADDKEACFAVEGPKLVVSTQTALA

Structure (SMILES) | *NO-dependent inactivation of RNAP (transcription) in the presence of ANSA [3] | CFU, E. coli, rich media [4] | CFU, E. coli, minimal media [4] | CFU, B. subtilis, rich media [5] | CFU, B. subtilis, minimal media [5] | also measured
CC1(C)N([O])C(c2ccccc2)=[N+]([O-])C1(C)C [PTIO, 2-phenyl-4,4,5,5-tetramethylimidazoline-1-oxyl-3-oxide, reference compound] | – | – | – | – | – | Effect of the additive on ANSA cytotoxicity [1]: decreased the inhibitory effect; Effect of the additive on the bactericidal effect of ANSA (CFU) [2]: almost completely abolished the inhibitory effect
CN(C)S(=O)(=O)c1cccc2c(N)cccc12 [ANSA III] | partial negative effect | – | – | – | – | –
CCCCCNS(=O)(=O)c1cccc2c(N)cccc12 [ANSA V] | completely inactivated RNAP | 0-20 CFU ml^−1 | ≈10^3 CFU ml^−1 | 10^2-10^3 CFU ml^−1 | 10^2 CFU ml^−1 | –
CNc1cccc2c(S(=O)(=O)N(C)C)cccc12 [ANSA VI] | unable to enhance inactivation of RNAP | – | – | – | – | –
CNS(=O)(=O)c1cccc2c(N)cccc12 [ANSA I] | had no effect on transcription | 10^6-10^7 CFU ml^−1 | ≈10^7 CFU ml^−1 | ≈10^7 CFU ml^−1 | ≈10^7 CFU ml^−1 | Cytotoxic effect / cell survival (MTS, in words) [1]: not; Nitrosation of ANSA in the ANSA I+ANSA II+BSA mixture (BSA): intact
Nc1cccc2c(S(=O)(=O)N3CCOCC3)cccc12 [ANSA IV] | partial negative effect | – | – | – | – | –
O=NO [NO2^−, nitrite, reference compound] | – | – | – | – | – | Effect on transcription by RNAP, agent alone [3]: had no effect
[N]=O [*NO, Nitric oxide, reference compound] | – | ≈10^6 CFU ml^−1 | ≈10^6 CFU ml^−1 | ≈10^6 CFU ml^−1 | ≈10^6 CFU ml^−1 | Effect on transcription by RNAP, agent alone [3]: partially inhibited transcription; Effect of the additive on the bactericidal effect of ANSA (CFU) [2]: restored the bactericidal effect
CCCN(CCC)S(=O)(=O)c1cccc2c(N)cccc12 [ANSA II] | completely inactivated RNAP | – | – | – | – | Effect on transcription by RNAP, agent alone [3]: did not affect transcription; Formation of a stable complex with BSA (BSA; gel filtration analysis): able to form a stable complex with BSA; Nitrosation of ANSA in the ANSA I+ANSA II+BSA mixture (BSA): nitrosated
CCCCCNS(=O)(=O)c1cccc2c(NC(=O)C(CCCNC(=N)N)NC(=O)C(CCCNC(=N)N)NC(=O)CNC(=O)CN)cccc12 (stereo not drawn) [ANSA VII] | unable to enhance inactivation of RNAP | 0 CFU ml^−1 | – | – | – | Cytotoxic effect / cell survival (MTS, in words) [1]: strong cytotoxic effect; Bactericidal effect / cell survival (in words) [2]: strongest bactericidal effect
CCCCCNS(=O)(=O)c1cccc2c(NC)cccc12 [ANSA VIII] | – | ≈10^7 CFU ml^−1 | ≈10^7 CFU ml^−1 | ≈10^7 CFU ml^−1 | ≈10^7 CFU ml^−1 | Cytotoxic effect / cell survival (MTS, in words) [1]: had no effect on cell survival; Bactericidal effect / cell survival (in words) [2]: had no effect on cell survival
COC(=O)[C@@H](N)CCCNC(=N)N[N+](=O)[O-] [L-NAME, reference compound] | – | – | – | – | – | Effect of the additive on ANSA cytotoxicity [1]: decreased the cytotoxicity
